Measured values taken from US20260223850A1, “SUBSTITUTED PYRROLIDONE COMPOUND, PREPARATION METHOD THEREFOR, COMPOSITION AND APPLICATION THEREOF” (QINGDAO KINGAGROOT CHEMICAL COMPOUND CO., LTD., priority 2023, published 2026).

Key:
Assay in all cases: Seedling stage sealing experiment for water-seeding
Format in all cases: in vivo
Echinochloa crusgalli = conditions: 120 g a.i./ha, seedling stage sealing, 15 days, fresh weight control rate
Echinochloa phyllopogon = conditions: 120 g a.i./ha, seedling stage sealing, 15 days, fresh weight control rate
Summary of the method: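 Read-out: 0–9 damage level from fresh-weight control rate (9 = completely dead, 1 = under 10%, 0 = no effect), averaged over triplicates, taken 15 days after spraying. Doses were 120, 60, 30 and 15 g a.i./ha, acetone/water solution, spray tower.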

Leptochloa chinensis = conditions: 120 g a.i./ha, 15 days, fresh weight control rate
Description: (1) Seedling Stage Sealing Experiment for Water-Seeding:
The activity level criteria for plant damage (i.e., growth control rate) are as follows: • Level 9: completely dead; • Level 8: growth control rate greater than or equal to 90% and less than 100%; • Level 7: growth control rate greater than or equal to 80% and less than 90%; • Level 6: growth control rate greater than or equal to 70% and less than 80%; • Level 5: growth control rate greater than or equal to 50% and less than 70%; • Level 4: growth control rate greater than or equal to 30% and less than 50%; • Level 3: growth control rate greater than or equal to 20% and less than 30%; • Level 2: growth control rate greater than or equal to 10% and less than 20%; • Level 1: growth control rate less than 10%; • Level 0: no effect.
The above growth control rates are fresh weight control rates.
Echinochloa phyllopogon, Digitaria sanguinalis, Huaidao (rice cultivar), etc. were broadcasted on the surface of nutrition bowls filled with soil and fully covered by soil. The foregoing well-prepared nutrition bowls were then placed in a cultivation box with water filled to a suitable height to keep the soil in the nutrition bowls moist. A test compound of the present invention was individually dissolved with acetone, then diluted into solution of a certain concentration using a certain amount of water, and sprayed using a spray tower. The plants were placed on a greenhouse seedbed and cultured for 15 days, and the experimental results were then collected. The compound was applied at 120, 60, 30 and 15 g a.i./ha in triplicate, and the results were averaged.

| Compound | Echinochloa crusgalli activity level (growth control rate) (Echinochloa crusgalli) | Echinochloa phyllopogon activity level (growth control rate) (Echinochloa phyllopogon) | Leptochloa chinensis activity level (growth control rate) (Leptochloa chinensis) |
| --- | --- | --- | --- |
| CC(C)c1cccc([C@H]2CN(C)C(=O)[C@@H]2C(=O)Nc2cnn(C)c2Cl)c1 [20′] | 9 | 8 (Level 8: growth control rate greater than or equal to 90% and less than 100%) | 9 |
| COc1cccc([C@H]2CN(C)C(=O)[C@@H]2C(=O)Nc2cnn(C)c2Cl)c1 [28′] | 8 (Level 8: growth control rate greater than or equal to 90% and less than 100%) | 6 (Level 6: growth control rate greater than or equal to 70% and less than 80%) | 9 |
| CN1C[C@H](c2cccc(OC(F)(F)F)c2)[C@@H](C(=O)Nc2cnn(C)c2Cl)C1=O [33′] | 9 | 8 (Level 8: growth control rate greater than or equal to 90% and less than 100%) | 9 |
| COc1cc([C@H]2CN(C)C(=O)[C@@H]2C(=O)Nc2cnn(C)c2Cl)cc(C(F)(F)F)c1 [75′] | 9 | 6 (Level 6: growth control rate greater than or equal to 70% and less than 80%) | 9 |
| CN1C[C@H](c2cccc(C(F)(F)F)c2)[C@@H](C(=O)Nc2cnn(CCF)c2Cl)C1=O [98′] | 9 | 9 | 9 |
| CN1C[C@H](c2cccc(C(F)(F)F)c2)[C@@H](C(=O)Nc2cnn(C)c2Br)C1=O [120′] | 9 | 8 (Level 8: growth control rate greater than or equal to 90% and less than 100%) | 9 |
| CN1C[C@H](c2cccc(I)c2)[C@@H](C(=O)Nc2cnn(C)c2Cl)C1=O [125′] | 9 | 9 | 9 |
| CN1C[C@H](c2cccc(Br)c2)[C@@H](C(=O)Nc2cnn(C)c2Cl)C1=O [126′] | 9 | 9 | 9 |
| Cc1cccc([C@H]2CN(C)C(=O)[C@@H]2C(=O)Nc2cnn(C3CC3)c2Cl)c1 [128′] | 9 | 8 (Level 8: growth control rate greater than or equal to 90% and less than 100%) | 9 |
| Cc1cccc([C@H]2CN(C)C(=O)[C@@H]2C(=O)Nc2cnn(CC(F)(F)F)c2Cl)c1 [129′] | 9 | 8 (Level 8: growth control rate greater than or equal to 90% and less than 100%) | 9 |
| Cc1cccc([C@H]2CN(C)C(=O)[C@@H]2C(=O)Nc2cnn(C(C)C)c2Cl)c1 [130′] | 9 | 9 | 9 |
| CCc1c(NC(=O)[C@H]2C(=O)N(C)C[C@@H]2c2cccc(C)c2)cnn1C [135′] | 9 | 7 (Level 7: growth control rate greater than or equal to 80% and less than 90%) | 9 |
| Cc1cccc([C@H]2CN(C)C(=O)[C@@H]2C(=O)Nc2c(O)nn(C)c2F)c1 [147′] | 9 | 8 (Level 8: growth control rate greater than or equal to 90% and less than 100%) | 9 |
| CN1C[C@H](c2cccc(C3CCCC3)c2)[C@@H](C(=O)Nc2cnn(C)c2Cl)C1=O [152′] | 9 | 8 (Level 8: growth control rate greater than or equal to 90% and less than 100%) | 9 |
| CN1C[C@H](c2cccc(C(F)F)c2)[C@@H](C(=O)Nc2cnn(C)c2Cl)C1=O [154′] | 9 | 8 (Level 8: growth control rate greater than or equal to 90% and less than 100%) | 9 |
| CN1C[C@H](c2cccc(C(F)(F)F)c2)[C@@H](C(=O)Nc2cnn(C(F)F)c2Cl)C1=O [158′] | 9 | 8 (Level 8: growth control rate greater than or equal to 90% and less than 100%) | 9 |
| CN1C[C@H](c2cccc(C(F)(F)F)c2)[C@@H](C(=O)Nc2cnn(CCCl)c2Cl)C1=O [160′] | 6 (Level 6: growth control rate greater than or equal to 70% and less than 80%) | 5 (Level 5: growth control rate greater than or equal to 50% and less than 70%) | 9 |
| CN1C[C@H](c2cccc(C(F)(F)F)c2)[C@@H](C(=O)Nc2cnn(CC(F)(F)F)c2Cl)C1=O [161′] | 9 | 8 (Level 8: growth control rate greater than or equal to 90% and less than 100%) | 9 |
| CN1C[C@H](c2cccc(C(F)(F)F)c2)[C@@H](C(=O)Nc2cnn(C)c2I)C1=O [186′] | 9 | 7 (Level 7: growth control rate greater than or equal to 80% and less than 90%) | 9 |
| CCc1c(NC(=O)[C@H]2C(=O)N(C)C[C@@H]2c2cccc(C(F)(F)F)c2)cnn1C [190′] | 9 | 8 (Level 8: growth control rate greater than or equal to 90% and less than 100%) | 9 |
| COCc1c(NC(=O)[C@H]2C(=O)N(C)C[C@@H]2c2cccc(C(F)(F)F)c2)cnn1C [193′] | 9 | 7 (Level 7: growth control rate greater than or equal to 80% and less than 90%) | 9 |
| CC(C)c1c(NC(=O)[C@H]2C(=O)N(C)C[C@@H]2c2cccc(C(F)(F)F)c2)cnn1C [194′] | 5 (Level 5: growth control rate greater than or equal to 50% and less than 70%) | 5 (Level 5: growth control rate greater than or equal to 50% and less than 70%) | 6 (Level 6: growth control rate greater than or equal to 70% and less than 80%) |
| CN1C[C@H](c2cccc(C(F)(F)F)c2)[C@@H](C(=O)Nc2cnn(C)c2C2CC2)C1=O [195′] | 9 | 7 (Level 7: growth control rate greater than or equal to 80% and less than 90%) | 9 |
| CN1C[C@H](c2cccc(C(F)(F)F)c2)[C@@H](C(=O)Nc2cnn(C(F)F)c2C2CC2)C1=O [196′] | 9 | 9 | 9 |
| CC(C)n1ncc(NC(=O)[C@H]2C(=O)N(C)C[C@@H]2c2cccc(C(F)(F)F)c2)c1C1CC1 [197′] | 8 (Level 8: growth control rate greater than or equal to 90% and less than 100%) | 6 (Level 6: growth control rate greater than or equal to 70% and less than 80%) | 9 |
| C=Cc1c(NC(=O)[C@H]2C(=O)N(C)C[C@@H]2c2cccc(C(F)(F)F)c2)cnn1C [203′] | 9 | 9 | 9 |
